From patent US20250074889A1, “Novel Aminobenzene Derivative Having Cancer Cell Growth Inhibitory Effect, and Preventive or Therapeutic Pharmaceutical Composition Containing Same as Active Ingredient” (Daewoong Pharmaceutical Co., Ltd., priority 2022, published 2025)

What was measured:
Type in all cases: cell-based
[1] = tested on: transcription factor TEAD; test: Activity inhibition test of transcription factor TEAD (ONE-Glo luciferase, TEAD reporter-MCF7 cell line); settings: Homo sapiens; TEAD Reporter-MCF7 cells, 24 hours treatment, luciferase luminescence
Protocol: The transcription factor TEAD activity of the compounds prepared in Examples was measured by the ONE-Glo™ Luciferase assay (Promega, Catalog #E6110) method using the Hippo Pathway TEAD reporter-MCF7 recombinant cell line (BPS Bioscience, Catalog #60618).
Specifically, the TEAD Reporter-MCF7 cell line contains the firefly luciferase gene whose expression is regulated under the control of TEAD response elements in the MCF7, which is a human breast cancer cell line. In the cell line, a non-phosphorylated YAP/TAZ exists in the nucleus in a non-stressed condition, which continuously induces expression of the luciferase reporter.
TEAD Reporter-MCF7 cells were prepared in 100 μL of cell culture medium (MEM medium, 10% FBS, 1% P/S, 400 μg/mL Geneticin, 1% […], 1 mM NA pyruvate, 10 μg/mL Insulin) in a white clear bottom 96-well microplate. The prepared plate was incubated in a 5% CO2 incubator at 37° C. for 24 hours, and then the previously prepared compounds of Examples were finally treated at concentrations of 0.001, 0.01, 0.1, 1, and 10 µM, which were repeated three times for all treatment solutions. The plates treated with the compounds of Examples were incubated in a 5% CO2 incubator at 37° C. for 24 hours. 100 μL/well of the substrate aqueous solution containing luciferin was added to a white clear-bottom 96 well microplate, thereby initiating an enzyme reaction. The reaction was performed at room temperature for 5 minutes, and the luminescence (integration time 1000 ms) was measured using a Flexstation3 multi-mode microplate reader. In accordance with the instructions for the ONE-Glo™ Luciferase Assay, the luciferase enzyme activity, which represents the activity of the transcription factor TEAD, was measured by a chemiluminescence method, and the inhibitory activity of the compound according to the present invention was calculated. The results of each compound were analyzed using Microsoft Excel, and the IC50 values were calculated by GraphPad Prism software.

[2] = tested on: NCI-H226 human mesothelioma cell line; test: Cell growth inhibition test (CellTiter-Glo), NCI-H226; settings: NCI-H226 cells
Protocol: (§1) The cell growth for the compounds prepared in Examples was measured by CellTiter-Glo® Luminescent Cell Viability (Promega, Catalog #G7571) method using NCI-H226 (addexbio), NCI-H28 (Korea Cell Line Bank) and MSTO-211H (elabscience) human mesothelioma cell lines. This evaluation method is a method in which when luciferase enzyme is activated by ATP flowing out from living cells, it reacts with a luciferin substrate, and the enzyme activity at this time is measured to confirm cell viability.
(§2) Specifically, NCI-H226, NCI-H28, and MSTO-211H cells were prepared in 100 μL of cell culture medium (RPMI medium, 10% FBS, 1% P/S, 4.5 g/L D-Glucose, 2.383 g/L HEPES Buffer, L-Glutamine, 1.5 g/L Sodium Bicarbonate, 110 mg/L Sodium pyruvate) in a white clear bottom 96-well microplate. The prepared plate was incubated in a 5% CO2 incubator at 37° C. for 24 hours, and then the previously prepared compounds of Examples were finally treated at concentrations of 0.001, 0.01, 0.1, 1, and 10 μM, which was repeated three times for all treatment solutions. The plates treated with the compounds of Examples were incubated in a 5% CO2 incubator at 37° C. 100 μL/well of the substrate aqueous solution containing luciferin was added to a white clear-bottom 96 well microplate, thereby initiating an enzyme reaction. The reaction was performed at room temperature in the dark for 10 minutes, and the luminescence was measured using a Flexstation3 multi-mode microplate reader. In accordance with the instructions for the CellTiter-Glo™ Luminescednt Cell Viability, the luciferase enzyme activity, which represents the amount of ATP, was measured by a chemiluminescence method, and the inhibitory activity of the compounds according to the present invention was calculated. The results of each compound were analyzed using Microsoft Excel, and the IC50 values were calculated using GraphPad Prism software.

[3] = tested on: NCI-H28 human mesothelioma cell line; test: Cell growth inhibition test (CellTiter-Glo), NCI-H28; settings: NCI-H28 cells
Protocol: as §1, §2

[4] = tested on: MSTO-211H human mesothelioma cell line; test: Cell growth inhibition test (CellTiter-Glo), MSTO-211H; settings: MSTO-211H cells
Protocol: as §1, §2

Structure (SMILES) | IC50 [1] [µM] | IC50 [2] [µM] | IC50 [3] [µM] | IC50 [4] [µM]
C=CC(=O)Nc1ccc(Nc2ccc(C(F)(F)F)cn2)c(-c2cn(C)cn2)c1 [Example 6, N-(3-(1-methyl-1H-imidazol-4-yl)-4-((5-(trifluoromethyl)pyridin-2-yl)amino)phenyl)acrylamide] | 0.01 | 0.003 | 1.38 | 0.221
C=CC(=O)Nc1ccc(Nc2ccc(C(F)(F)F)cn2)c(-c2ccncn2)c1 [Example 15, N-(3-(pyrimidin-4-yl)-4-((5-(trifluoromethyl)pyridin-2-yl)amino)phenyl)acrylamide] | 0.0428 | 0.0718 | 1.57 | 0.551
C=CC(=O)Nc1ccc(Nc2ncc(C(F)(F)F)cc2F)c(-c2ccccn2)c1 [Example 21, N-(4-((3-fluoro-5-(trifluoromethyl)pyridin-2-yl)amino)-3-(pyridin-2-yl)phenyl)acrylamide] | 0.0115 | 0.009 | 2.68 | 3.27
C=CC(=O)Nc1cc(F)c(Nc2ccc(C(F)(F)F)cn2)c(-c2ccccn2)c1 [Example 29, N-(3-fluoro-5-(pyridin-2-yl)-4-((5-(trifluoromethyl)pyridin-2-yl)amino)phenyl)acrylamide] | 0.0215 | 0.02 | 2.55 | 0.197
C=CC(=O)Nc1ccc(Nc2cc(C3CC3)c(Cl)cn2)c(-c2ccccn2)c1 [Example 30, N-(4-((5-chloro-4-cyclopropylpyridin-2-yl)amino)-3-(pyridin-2-yl)phenyl)acrylamide] | 0.0316 | 0.01 | 8.79 | 2.21
C=CC(=O)Nc1ccc(Nc2ccc(C(F)(F)F)cc2)c(-c2cn(C)cn2)c1 [Example 35, N-(3-(1-methyl-1H-imidazol-4-yl)-4-((4-(trifluoromethyl)phenyl)amino)phenyl)acrylamide] | 0.0053 | 0.003 | 3.02 | 0.105
C=CC(=O)Nc1ccc(Nc2ncc(C(F)(F)F)cc2F)c(-c2cn(C)cn2)c1 [Example 36, N-(4-((3-fluoro-5-(trifluoromethyl)pyridin-2-yl)amino)-3-(1-methyl-1H-imidazol-4-yl)phenyl)acrylamide] | 0.027 | 0.012 | > 10 | > 10
C=CC(=O)Nc1ccc(Nc2cc(Cl)c(C(F)(F)F)cn2)c(-c2ccn(C)n2)c1 [Example 37, N-(4-((4-chloro-5-(trifluoromethyl)pyridin-2-yl)amino)-3-(1-methyl-1H-pyrazol-3-yl)phenyl)acrylamide] | 0.0045 | 0.013 | 1.1 | 3.75
C=CC(=O)Nc1cnc(Nc2ccc(C(F)(F)F)cn2)c(-c2ccccn2)c1 [Example 39, N-(2′-((5-(trifluoromethyl)pyridin-2-yl)amino)-[2,3′-bipyridin]-5′-yl)acrylamide] | 0.0403 | 0.0158 | 3.28 | 0.194
C=CC(=O)Nc1ccc(Nc2ccc(C(F)(F)F)c(F)c2)c(-c2cn(C)cn2)c1 [Example 40, N-(4-((3-fluoro-4-(trifluoromethyl)phenyl)amino)-3-(1-methyl-1H-imidazol-4-yl)phenyl)acrylamide] | 0.015 | 0.0066 | 5.54 | 1.13
C=CC(=O)Nc1ccc(Nc2ncc(C(F)(F)F)cc2Cl)c(-c2ccn(C)n2)c1 [Example 53, N-(4-((3-chloro-5-(trifluoromethyl)pyridin-2-yl)amino)-3-(1-methyl-1H-pyrazol-3-yl)phenyl)acrylamide] | 0.0307 | 0.0628 | 1.67 | 8.24
C=CC(=O)Nc1ccc(Nc2cc(Cl)c(Cl)cn2)c(-c2ccn(C)n2)c1 [Example 55, N-(4-((4,5-dichloropyridin-2-yl)amino)-3-(1-methyl-1H-pyrazol-3-yl)phenyl)acrylamide] | 0.0128 | 0.065 | 1.25 | 0.167
